Data on 22 molecules can be found in patent US10363257B2 (ZENITH EPIGENETICS LTD., priority 2013, dated 2019).

Counter-ions that a name gives are not always drawn.

Assay [1] deals with T1, Brd4 bromodomain 1 (BRD4(1)) (Homo sapiens, UniProt O60885).
T1 construct: made in house; host or cells: E. coli BL21(DE3)
The assay can be described thus: Inhibition of tetra-acetylated histone H4 binding to Brd4 bromodomain 1 (TR-FRET). The note with it: tetra-acetylated histone H4 peptide, first bromodomain of Brd4. The method in brief:
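His-tagged BRD4(1) from E. coli (200 nM) with biotinylated tetra-acetylated H4 peptide (25-50 nM), Eu-cryptate streptavidin and XL665 anti-His, in HEPES pH 7.4/phosphate/KF buffer, 0.2% DMSO. After 2 h at room temperature, TR-FRET 665/620 nm ratio read; IC50 from dose-response curves.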

In the next assay the test system is c-myc. The experiment in a line: Inhibition of c-myc expression (mRNA, real-time PCR) in MV4-11 cells. It counts as cell-based. The settings on record: Human AML MV4-11 cells, 3 h, cMYC mRNA. The essentials:
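MV4-11 cells treated 3 h at 37° C with increasing compound concentrations or 0.1% DMSO, in triplicate. cMYC mRNA quantified by one-step TaqMan real-time PCR, Ct normalized to internal control (Cyclophilin primers used), fold expression relative to control.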

For a further assay, the system named is hIL-6 mRNA. The assay can be described thus: Inhibition of hIL-6 mRNA transcription in LPS-stimulated U937 cells. It counts as cell-based. The settings on record: Homo sapiens, U-937; PMA-differentiated U937 cells, 1 h pretreatment, 1 ug/mL LPS stimulation, 3 h; read-out: IL-6 activity (Inhibition of hIL-6 mRNA Transcription). On the procedure: In this example, hIL-6 mRNA in tissue culture cells was quantitated to measure the transcriptional inhibition of hIL-6 when treated with a compound of the invention.
Human leukemic monocyte lymphoma U937 cells (CRL-1593.2) were plated at a density of 3.2×10^4 cells per well in a 96-well plate in 100 μL RPMI-1640 containing 10% FBS and penicillin/streptomycin, and differentiated into macrophages for 3 days in 60 ng/mL PMA ([…]) at 37° C. in 5% CO2 prior to the addition of compound. The cells were pretreated for 1 h with increasing concentrations of test compound in 0.1% DMSO prior to stimulation with 1 ug/mL lipopolysaccharide from Escherichia coli. Triplicate wells were used for each concentration. The cells were incubated at 37° C., 5% CO2 for 3 h before the cells were harvested. At time of harvest, media was removed and cells were rinsed in 200 μL PBS. Cells were harvested using the mRNA Catcher PLUS kit according to manufacturer's instructions. The eluted mRNA was then used in a one-step quantitative real-time PCR reaction using components of the RNA UltraSense™ One-Step Kit (Life Technologies) together with Applied Biosystems TaqMan® primer-probes for hIL-6 and Cyclophilin. Real-time PCR plates were run on a VIa™ 7 real time PCR machine (Applied Biosystems), data was analyzed, normalizing the Ct values for hIL-6 to an internal control, prior to determining the fold expression of each sample, relative to the control.

A further assay relates to human AML MV-4-11 cells. The experiment in a line: Inhibition of cell proliferation in MV4-11 cells (CellTiter Aqueous One). The class given is cell-based. The note with it: for Cell Proliferation activity: 72 h; for IC50: MV4-11, 72 h. The method in brief: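 Exponentially growing MV-4-11 cells (5×10^4/well) were treated immediately with two-fold dilutions of compound from 30 μM to 0.2 μM, in triplicate, for 72 h at 37° C, 5% CO2. Viability was measured by MTS absorbance at 490 nm after 3–4 h. Proliferation relative to DMSO after blank correction gave IC50.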

Regarding `Cc1noc(C)c1-c1cc2c(c(C)nn2Cc2ccc(F)cc2)[n+]([O-])c1` [Example Compound 24, 6-(3,5-dimethylisoxazol-4-yl)-1-(4-fluorobenzyl)-3-methyl-1H-pyrazolo[4,3-b]pyridine-4-oxide], the IC50 in assay [1] was not above 0.3 µM; in the assay on c-myc it was 3 to 30 µM; in the assay with hIL-6 mRNA, 0.3 to 3 µM. Moreover, the “Cell Proliferation activity” value with human AML MV-4-11 cells was “Not active”.

Consider `Cc1noc(C)c1-c1ccc2ncn(Cc3ccccc3)c2n1` [Example Compound 26, 4-(3-benzyl-3H-imidazo[4,5-b]pyridin-5-yl)-3,5-dimethylisoxazole], for which the IC50 fell in the range of 0.3 to 3 µM in assay [1], 3 to 30 µM with c-myc, 0.3 to 3 µM with hIL-6 mRNA and 0.3 to 3 µM with human AML MV-4-11 cells.

Take `Cc1noc(C)c1-c1cc(N)c2ncn(Cc3ccc(F)cc3)c2c1` [Example Compound 27, 6-(3,5-dimethylisoxazol-4-yl)-1-(4-fluorobenzyl)-1H-benzo[d]imidazol-4-amine]: the IC50 in assay [1] was not above 0.3 µM; in the assay on c-myc, 0.3 to 3 µM; with hIL-6 mRNA, 0.3 to 3 µM; in the assay with human AML MV-4-11 cells, 0.3 to 3 µM.

For `CNc1cc(-c2c(C)noc2C)cc2c1ncn2Cc1ccc(F)cc1` [Example Compound 28, 6-(3,5-dimethylisoxazol-4-yl)-1-(4-fluorobenzyl)-N-methyl-1H-benzo[d]imidazol-4-amine], the IC50 in assay [1] is not above 0.3 µM; in the assay on c-myc it was 0.3 to 3 µM; in the assay on hIL-6 mRNA, 0.3 to 3 µM; in the assay with human AML MV-4-11 cells, 0.3 to 3 µM.

For `Cc1noc(C)c1-c1cc(N(C)C)c2ncn(Cc3ccc(F)cc3)c2c1` [Example Compound 29, 6-(3,5-dimethylisoxazol-4-yl)-1-(4-fluorobenzyl)-N,N-dimethyl-1H-benzo[d]imidazol-4-amine], the IC50 was not above 0.3 µM in assay [1], 0.3 to 3 µM in the assay on c-myc, 0.3 to 3 µM with hIL-6 mRNA and 0.3 to 3 µM in the assay with human AML MV-4-11 cells.

`Cc1noc(C)c1-c1cc2c(ncn2Cc2ccccc2)c(N)n1` [Example Compound 33, 1-benzyl-6-(3,5-dimethylisoxazol-4-yl)-1H-imidazo[4,5-c]pyridin-4-amine]: the IC50 was not above 0.3 µM in assay [1], 0.3 to 3 µM with c-myc, 0.3 to 3 µM in the assay with hIL-6 mRNA and 3 to 30 µM in the assay on human AML MV-4-11 cells.

`Cc1noc(C)c1-c1cnc2c(Br)cn(Cc3ccccc3)c2c1` [Example Compound 34, 4-(1-benzyl-3-bromo-1H-pyrrolo[3,2-b]pyridin-6-yl)-3,5-dimethylisoxazole]: the IC50 in assay [1] was not above 0.3 µM; in the assay on c-myc, 0.3 to 3 µM; in the assay on hIL-6 mRNA, 0.3 to 3 µM; with human AML MV-4-11 cells, 0.3 to 3 µM.

In the case of `Cc1noc(C)c1-c1cnc2c(C=O)cn(Cc3ccccc3)c2c1` [Example Compound 35, 1-benzyl-6-(3,5-dimethylisoxazol-4-yl)-1H-pyrrolo[3,2-b]pyridine-3-carbaldehyde], the IC50 in assay [1] is not above 0.3 µM; in the assay with c-myc, 0.3 to 3 µM; with hIL-6 mRNA, 0.3 to 3 µM; with human AML MV-4-11 cells, 0.3 to 3 µM.

As for `CC(=O)c1cn(Cc2ccccc2)c2cc(-c3c(C)noc3C)cnc12` [Example Compound 36, 1-(1-benzyl-6-(3,5-dimethylisoxazol-4-yl)-1H-pyrrolo[3,2-b]pyridin-3-yl)ethanone], the IC50 is not above 0.3 µM in assay [1], 0.3 to 3 µM with c-myc, 0.3 to 3 µM in the assay with hIL-6 mRNA and 0.3 to 3 µM in the assay with human AML MV-4-11 cells.

On to `Cc1noc(C)c1-c1cc2c(ccn2Cc2ccccc2)nc1OC=O` [Example Compound 37, 1-benzyl-6-(3,5-dimethylisoxazol-4-yl)-1H-pyrrolo[3,2-b]pyridin-5-yl formate], for which the values for the IC50 (in assay [1]; with c-myc; in the assay with hIL-6 mRNA) were 0.3 to 3 µM, 3 to 30 µM and 3 to 30 µM, respectively. Also, the “Cell Proliferation activity” value in the assay with human AML MV-4-11 cells is listed as “Not active”.

Regarding `Cc1noc(C)c1-c1cnc2nc(C)n(Cc3ccc(C(N)=O)cc3)c2c1` [Example Compound 38, 4-((6-(3,5-dimethylisoxazol-4-yl)-2-methyl-1H-imidazo[4,5-b]pyridin-1-yl)methyl)benzamide], the IC50 was not above 0.3 µM in assay [1], 3 to 30 µM with c-myc and 3 to 30 µM with hIL-6 mRNA. Besides, the “Cell Proliferation activity” value in the assay with human AML MV-4-11 cells is given as “Not active”.

Regarding `Cc1noc(C)c1-c1cnc2c([N+](=O)[O-])cn(Cc3ccccc3)c2c1` [Example Compound 39, 4-(1-benzyl-3-nitro-1H-pyrrolo[3,2-b]pyridin-6-yl)-3,5-dimethylisoxazole], the IC50 in assay [1] is not above 0.3 µM; in the assay with c-myc, 0.3 to 3 µM; in the assay on hIL-6 mRNA, 0.3 to 3 µM; in the assay with human AML MV-4-11 cells, 0.3 to 3 µM.

Take `Cc1noc(C)c1-c1cnc2c(c1)ncn2Cc1ccc(Cl)cc1` [Example Compound 42, 4-(3-(4-chlorobenzyl)-3H-imidazo[4,5-b]pyridin-6-yl)-3,5-dimethylisoxazole]: the IC50 in assay [1] fell in the range of 0.3 to 3 µM; in the assay on c-myc it was 3 to 30 µM; in the assay on hIL-6 mRNA, 3 to 30 µM; in the assay with human AML MV-4-11 cells, 3 to 30 µM.

`Cc1noc(C)c1-c1cnc2c(c1)ncn2Cc1ccc(F)cc1` [Example Compound 44, 4-(3-(4-fluorobenzyl)-3H-imidazo[4,5-b]pyridin-6-yl)-3,5-dimethylisoxazole]: the IC50 in assay [1] was 0.3 to 3 µM; in the assay on c-myc, 3 to 30 µM; in the assay with hIL-6 mRNA it was 0.3 to 3 µM; with human AML MV-4-11 cells, 3 to 30 µM.

Take `Cc1noc(C)c1-c1cnc2c(c1)ncn2Cc1ccccn1` [Example Compound 46, 3,5-dimethyl-4-(3-(pyridin-2-ylmethyl)-3H-imidazo[4,5-b]pyridin-6-yl)isoxazole]: the IC50 in assay [1] lay within 0.3 to 3 µM; in the assay with c-myc, 3 to 30 µM; in the assay with hIL-6 mRNA, 3 to 30 µM; in the assay on human AML MV-4-11 cells, 3 to 30 µM.

For the molecule `Cc1noc(C)c1-c1cnc2ccn(Cc3ccc(F)cc3)c2c1` [Example Compound 48, 4-(1-(4-fluorobenzyl)-1H-pyrrolo[3,2-b]pyridin-6-yl)-3,5-dimethylisoxazole], the IC50 was not above 0.3 µM in assay [1], 0.3 to 3 µM in the assay with c-myc, 0.3 to 3 µM with hIL-6 mRNA and 3 to 30 µM in the assay with human AML MV-4-11 cells.

For the molecule `Cc1noc(C)c1-c1ccc2ccn(Cc3ccc(F)cc3)c2n1` [Example Compound 49, 4-(1-(4-fluorobenzyl)-1H-pyrrolo[2,3-b]pyridin-6-yl)-3,5-dimethylisoxazole], the IC50 (in assay [1]; in the assay with c-myc; in the assay on hIL-6 mRNA; with human AML MV-4-11 cells) was 3 to 30 µM throughout.

For `Cc1noc(C)c1-c1cnc2ccn(Cc3ccc(F)cc3)c2n1` [Example Compound 50, 4-(5-(4-fluorobenzyl)-5H-pyrrolo[2,3-b]pyrazin-3-yl)-3,5-dimethylisoxazole], the IC50 is not above 0.3 µM in assay [1], 3 to 30 µM in the assay with c-myc, 0.3 to 3 µM in the assay on hIL-6 mRNA and 3 to 30 µM with human AML MV-4-11 cells.

Take `Cc1noc(C)c1-c1cc(N)c2ccn(Cc3ccc(F)cc3)c2n1` [Example Compound 52, 6-(3,5-dimethylisoxazol-4-yl)-1-(4-fluorobenzyl)-1H-pyrrolo[2,3-b]pyridin-4-amine]: the IC50 in assay [1] lay within 0.3 to 3 µM; in the assay with c-myc it was 3 to 30 µM; with hIL-6 mRNA it was 0.3 to 3 µM; in the assay on human AML MV-4-11 cells it was 0.3 to 3 µM.

In the case of `Cc1noc(C)c1-c1cc(N)c2cnn(Cc3ccccc3)c2c1` [Example Compound 54, 1-benzyl-6-(3,5-dimethylisoxazol-4-yl)-1H-indazol-4-amine], the IC50 in assay [1] is not above 0.3 µM; in the assay on c-myc, 0.3 to 3 µM; with hIL-6 mRNA it was 0.3 to 3 µM; in the assay with human AML MV-4-11 cells it was 0.3 to 3 µM.

On to `Cc1noc(C)c1-c1cnc2nc(C)n(Cc3ccc(F)cc3)c2c1` [Example Compound 58, 4-(1-(4-fluorobenzyl)-2-methyl-1H-imidazo[4,5-b]pyridin-6-yl)-3,5-dimethylisoxazole], for which the IC50 in assay [1] was not above 0.3 µM; in the assay with c-myc, 0.3 to 3 µM; in the assay with hIL-6 mRNA, 0.3 to 3 µM; in the assay with human AML MV-4-11 cells, 0.3 to 3 µM.

Consider `Cc1noc(C)c1Cn1c(C)nc2ncc(-c3c(C)noc3C)cc21` [Example Compound 60, 4-((6-(3,5-dimethylisoxazol-4-yl)-2-methyl-1H-imidazo[4,5-b]pyridin-1-yl)methyl)-3,5-dimethylisoxazole], for which the IC50 was 0.3 to 3 µM in assay [1], 3 to 30 µM with c-myc and 0.3 to 3 µM in the assay on hIL-6 mRNA. Further, the “Cell Proliferation activity” value in the assay with human AML MV-4-11 cells is “Not active”.
